Data as given in PubChem BioAssay (NCI).
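Results reflect a 48-hour exposure of cells in 96-well plates to compound at five concentrations. GI50 marks 50% less growth. TGI denotes the concentration required for complete inhibition of growth.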

Tests used:
Assay in all cases: inhibition of tumour cell growth, NCI panel, 48 h
SNB-75 CNS = test system: SNB-75 CNS
NCI-H23 lung = test system: NCI-H23 lung
RPMI-8226 leukemia = test system: RPMI-8226 leukemia
CCRF-CEM leukemia = test system: CCRF-CEM leukemia
NCI/ADR-RES ovarian = test system: NCI/ADR-RES ovarian
M14 melanoma = test system: M14 melanoma
SF-539 CNS = test system: SF-539 CNS
HOP-62 NSCLC = test system: HOP-62 NSCLC
EKVX NSCLC = test system: EKVX NSCLC
ACHN renal = test system: ACHN renal
HL-60(TB) leukemia = test system: HL-60(TB) leukemia
SK-MEL-28 melanoma = test system: SK-MEL-28 melanoma
T-47D breast = test system: T-47D breast
BT-549 breast = test system: BT-549 breast
OVCAR-4 ovarian = test system: OVCAR-4 ovarian
RXF 393 renal = test system: RXF 393 renal
HCT-116 colon = test system: HCT-116 colon
TK-10 renal = test system: TK-10 renal
NCI-H460 lung = test system: NCI-H460 lung
MDA-MB-435 = test system: MDA-MB-435
DU-145 prostate = test system: DU-145 prostate
COLO 205 colon = test system: COLO 205 colon
MDA-MB-231 breast = test system: MDA-MB-231 breast
786-0 renal = test system: 786-0 renal
CAKI-1 renal = test system: CAKI-1 renal
K-562 leukemia = test system: K-562 leukemia
OVCAR-8 ovarian = test system: OVCAR-8 ovarian
HCT-15 colon = test system: HCT-15 colon
UACC-257 melanoma = test system: UACC-257 melanoma
A498 renal = test system: A498 renal
SK-MEL-2 melanoma = test system: SK-MEL-2 melanoma
OVCAR-3 ovarian = test system: OVCAR-3 ovarian
PC-3 prostate = test system: PC-3 prostate
LOX IMVI melanoma = test system: LOX IMVI melanoma
SN12C renal = test system: SN12C renal
MCF7 breast = test system: MCF7 breast
UACC-62 melanoma = test system: UACC-62 melanoma
HOP-92 NSCLC = test system: HOP-92 NSCLC
KM12 colon = test system: KM12 colon
SR leukemia = test system: SR leukemia
A549 NSCLC = test system: A549 NSCLC
U251 CNS = test system: U251 CNS
SW-620 colon = test system: SW-620 colon
SF-295 CNS = test system: SF-295 CNS
HT29 colon = test system: HT29 colon
MOLT-4 leukemia = test system: MOLT-4 leukemia
HCC-2998 colon = test system: HCC-2998 colon
SNB-19 CNS = test system: SNB-19 CNS
MALME-3M melanoma = test system: MALME-3M melanoma
NCI-H226 lung = test system: NCI-H226 lung
SK-MEL-5 melanoma = test system: SK-MEL-5 melanoma
SF-268 CNS = test system: SF-268 CNS
OVCAR-5 ovarian = test system: OVCAR-5 ovarian
HS 578T breast = test system: HS 578T breast

## COc1ccc2c(CN3CCC(C(=O)O)CC3)cc3cc4c(cc3c2c1)OCO4
SNB-75 CNS
  GI50: 2.41 µM
  TGI: 9.03 µM
NCI-H23 lung
  GI50: 2.53 µM
  TGI: 8.9 µM
RPMI-8226 leukemia
  GI50: 1.4 µM
  TGI: 3.59 µM
CCRF-CEM leukemia
  GI50: 1 µM
  TGI: 6.5 µM
NCI/ADR-RES ovarian
  GI50: 2.35 µM
  TGI: 6.99 µM
M14 melanoma
  GI50: 2.11 µM
  TGI: 4.94 µM
SF-539 CNS
  GI50: 3.38 µM
  TGI: 14 µM
HOP-62 NSCLC
  GI50: 2.71 µM
  TGI: 11.4 µM
EKVX NSCLC
  GI50: 3.69 µM
  TGI: 20.6 µM
ACHN renal
  GI50: 1.41 µM
  TGI: 5.45 µM
HL-60(TB) leukemia
  GI50: 3.97 µM
  TGI: 15.3 µM
SK-MEL-28 melanoma
  GI50: 2.28 µM
  TGI: 6.02 µM
T-47D breast
  GI50: 3.62 µM
  TGI: 17.7 µM
BT-549 breast
  GI50: 4.03 µM
  TGI: 17.6 µM
OVCAR-4 ovarian
  GI50: 4.15 µM
  TGI: > 100 µM
RXF 393 renal
  GI50: 1.14 µM
  TGI: 3.6 µM
HCT-116 colon
  GI50: 1.4 µM
  TGI: 8.78 µM
TK-10 renal
  GI50: 3.23 µM
  TGI: 25 µM
NCI-H460 lung
  GI50: 2.97 µM
  TGI: 16.1 µM
MDA-MB-435
  GI50: 2.66 µM
  TGI: 7.42 µM
DU-145 prostate
  GI50: 3.87 µM
  TGI: > 100 µM
COLO 205 colon
  GI50: 1.55 µM
  TGI: 4.33 µM
MDA-MB-231 breast
  GI50: 3.87 µM
  TGI: 30.7 µM
786-0 renal
  GI50: 2.41 µM
  TGI: 14.2 µM
CAKI-1 renal
  GI50: 2.44 µM
  TGI: 7.8 µM
K-562 leukemia
  GI50: 2.66 µM
  TGI: 11.3 µM
OVCAR-8 ovarian
  GI50: 1.28 µM
  TGI: 4.86 µM
HCT-15 colon
  GI50: 2.76 µM
  TGI: 16.7 µM
UACC-257 melanoma
  GI50: 1.85 µM
  TGI: 3.54 µM
A498 renal
  GI50: 1.79 µM
  TGI: 3.33 µM
SK-MEL-2 melanoma
  GI50: 1.48 µM
  TGI: 3 µM
OVCAR-3 ovarian
  GI50: 2.85 µM
  TGI: 9.64 µM
PC-3 prostate
  GI50: 2.26 µM
  TGI: 6.05 µM
LOX IMVI melanoma
  GI50: 1.9 µM
  TGI: 9.37 µM
SN12C renal
  GI50: 1.27 µM
  TGI: 4.08 µM
MCF7 breast
  GI50: 3.1 µM
  TGI: 18.3 µM
UACC-62 melanoma
  GI50: 1.59 µM
  TGI: 3.03 µM
HOP-92 NSCLC
  GI50: 1.62 µM
  TGI: 5.34 µM
KM12 colon
  GI50: 2.52 µM
  TGI: 10.4 µM
SR leukemia
  GI50: 0.886 µM
  TGI: 5.78 µM
A549 NSCLC
  GI50: 1.77 µM
  TGI: 4.34 µM
U251 CNS
  GI50: 2.74 µM
  TGI: > 100 µM
SW-620 colon
  GI50: 2.51 µM
  TGI: 39.4 µM
SF-295 CNS
  GI50: 2.39 µM
  TGI: 10.1 µM
HT29 colon
  GI50: 2.33 µM
  TGI: 13.8 µM
MOLT-4 leukemia
  GI50: 3.05 µM
  TGI: 9.73 µM
HCC-2998 colon
  GI50: 2.72 µM
  TGI: 11 µM
SNB-19 CNS
  GI50: 3.35 µM
  TGI: 22.6 µM
MALME-3M melanoma
  GI50: 1.58 µM
  TGI: 3.45 µM
NCI-H226 lung
  GI50: 2.03 µM
  TGI: 4.64 µM
SK-MEL-5 melanoma
  GI50: 1.62 µM
  TGI: 3.14 µM
SF-268 CNS
  GI50: 3.67 µM
  TGI: 25.4 µM
OVCAR-5 ovarian
  GI50: 2.55 µM
  TGI: 6.87 µM
HS 578T breast
  GI50: 3.97 µM
  TGI: 25.8 µM
